Assay: Solubility of photoacid generator compounds in cyclohexanone
Assay type: physicochemical
Details: cyclohexanone as solvent, with stirring; lower amount = better solubility
Procedure: In order to determine the solubility of photoacid generator compounds of the present invention, to a weighed amount of the compound to be tested is added cyclohexanone as the solvent with stirring. Determined is the amount of cyclohexanone needed to completely dissolve the photoacid generator compound. […]

For `CC12CCC(C(=O)OCC(F)C(F)(F)S(=O)(=O)O)(OC1=O)C2(C)C` (stereo not shown) [Example 57], the “Solvent needed to completely dissolve 10 g of the compound” value was 24 mL.

From US8580478B2, “Latent acids and their use” (BASF SE, priority 2010, dated 2013)
